Here are results for 2 compounds from PMC9851200, “Multiparameter phenotypic screening for endogenous TFEB and TFE3 translocation identifies novel chemical series modulating lysosome function” (Autophagy, 2022).

What all share (format): binding
Assay [1] addresses kinases (KINOMEscan panel) (Homo sapiens, UniProt P10721, D816V). Particulars: kinase KIT(D816V); NEW KINOMEscan.
The target of assay [2] is kinases (KINOMEscan panel) (Homo sapiens, UniProt O96017). The note with it: kinase CHEK2; NEW KINOMEscan.
Assay [3] deals with kinases (KINOMEscan panel) (Homo sapiens, UniProt Q9BVS4). The note with it: RIOK2; NEW KINOMEscan.
Sequence of kinases (KINOMEscan panel) (Homo sapiens, UniProt Q9BVS4) (Q9BVS4 whole entry): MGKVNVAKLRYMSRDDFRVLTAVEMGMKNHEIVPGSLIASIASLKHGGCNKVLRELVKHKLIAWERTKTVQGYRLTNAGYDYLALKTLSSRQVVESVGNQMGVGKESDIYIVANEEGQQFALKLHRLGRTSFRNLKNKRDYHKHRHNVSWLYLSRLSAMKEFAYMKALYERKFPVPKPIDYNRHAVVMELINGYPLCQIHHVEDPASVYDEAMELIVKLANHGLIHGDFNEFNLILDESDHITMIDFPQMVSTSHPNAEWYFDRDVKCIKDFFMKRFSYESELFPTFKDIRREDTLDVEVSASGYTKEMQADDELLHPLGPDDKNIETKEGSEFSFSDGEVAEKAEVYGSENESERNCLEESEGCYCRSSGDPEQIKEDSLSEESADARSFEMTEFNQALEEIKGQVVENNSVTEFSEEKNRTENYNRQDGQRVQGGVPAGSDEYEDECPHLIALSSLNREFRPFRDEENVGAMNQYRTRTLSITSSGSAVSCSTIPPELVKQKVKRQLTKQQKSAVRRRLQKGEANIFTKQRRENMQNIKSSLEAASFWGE
Assay [4] addresses kinases (KINOMEscan panel) (Homo sapiens, UniProt P15056, V600E). The note with it: kinase BRAF(V600E); NEW KINOMEscan.
Assay [5] deals with T1, kinases (KINOMEscan panel) (Homo sapiens, UniProt O14730).
T1 sequence (O14730 1-519): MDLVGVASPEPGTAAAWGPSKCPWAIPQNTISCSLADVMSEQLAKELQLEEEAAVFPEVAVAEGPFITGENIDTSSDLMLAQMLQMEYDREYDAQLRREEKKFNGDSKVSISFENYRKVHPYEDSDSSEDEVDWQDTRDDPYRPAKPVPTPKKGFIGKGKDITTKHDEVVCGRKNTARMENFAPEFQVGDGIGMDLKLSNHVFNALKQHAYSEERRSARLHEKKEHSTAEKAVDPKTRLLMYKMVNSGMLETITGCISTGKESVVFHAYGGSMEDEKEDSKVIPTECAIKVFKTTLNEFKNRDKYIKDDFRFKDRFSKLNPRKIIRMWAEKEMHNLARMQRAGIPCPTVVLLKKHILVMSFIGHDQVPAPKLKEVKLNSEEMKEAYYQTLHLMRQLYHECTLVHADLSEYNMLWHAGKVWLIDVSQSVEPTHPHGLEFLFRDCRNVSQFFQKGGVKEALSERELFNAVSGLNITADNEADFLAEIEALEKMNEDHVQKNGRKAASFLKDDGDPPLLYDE
The note with it: RIOK3; NEW KINOMEscan.

For assay [6], the target named is kinases (KINOMEscan panel) (Homo sapiens, UniProt P06241). Particulars: kinase FYN; NEW KINOMEscan.
Sequence of kinases (KINOMEscan panel) (Homo sapiens, UniProt P06241) (P06241 whole entry): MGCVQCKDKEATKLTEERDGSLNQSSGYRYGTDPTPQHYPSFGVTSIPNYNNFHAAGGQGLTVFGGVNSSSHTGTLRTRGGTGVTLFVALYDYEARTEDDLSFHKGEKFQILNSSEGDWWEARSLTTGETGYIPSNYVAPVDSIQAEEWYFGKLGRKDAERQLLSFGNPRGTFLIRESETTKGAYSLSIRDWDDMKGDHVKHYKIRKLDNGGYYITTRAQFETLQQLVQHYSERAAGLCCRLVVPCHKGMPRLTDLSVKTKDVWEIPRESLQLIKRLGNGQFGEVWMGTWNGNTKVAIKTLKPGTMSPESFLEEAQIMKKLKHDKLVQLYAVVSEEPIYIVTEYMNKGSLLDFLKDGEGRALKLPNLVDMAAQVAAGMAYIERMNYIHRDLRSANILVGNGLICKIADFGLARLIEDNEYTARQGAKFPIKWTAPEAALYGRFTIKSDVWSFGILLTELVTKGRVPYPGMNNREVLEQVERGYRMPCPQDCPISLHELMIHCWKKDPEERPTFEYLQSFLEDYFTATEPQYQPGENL
For assay [7], the target named is T2, kinases (KINOMEscan panel) (Homo sapiens, UniProt Q6P3R8).
T2 sequence (Q6P3R8 1-708): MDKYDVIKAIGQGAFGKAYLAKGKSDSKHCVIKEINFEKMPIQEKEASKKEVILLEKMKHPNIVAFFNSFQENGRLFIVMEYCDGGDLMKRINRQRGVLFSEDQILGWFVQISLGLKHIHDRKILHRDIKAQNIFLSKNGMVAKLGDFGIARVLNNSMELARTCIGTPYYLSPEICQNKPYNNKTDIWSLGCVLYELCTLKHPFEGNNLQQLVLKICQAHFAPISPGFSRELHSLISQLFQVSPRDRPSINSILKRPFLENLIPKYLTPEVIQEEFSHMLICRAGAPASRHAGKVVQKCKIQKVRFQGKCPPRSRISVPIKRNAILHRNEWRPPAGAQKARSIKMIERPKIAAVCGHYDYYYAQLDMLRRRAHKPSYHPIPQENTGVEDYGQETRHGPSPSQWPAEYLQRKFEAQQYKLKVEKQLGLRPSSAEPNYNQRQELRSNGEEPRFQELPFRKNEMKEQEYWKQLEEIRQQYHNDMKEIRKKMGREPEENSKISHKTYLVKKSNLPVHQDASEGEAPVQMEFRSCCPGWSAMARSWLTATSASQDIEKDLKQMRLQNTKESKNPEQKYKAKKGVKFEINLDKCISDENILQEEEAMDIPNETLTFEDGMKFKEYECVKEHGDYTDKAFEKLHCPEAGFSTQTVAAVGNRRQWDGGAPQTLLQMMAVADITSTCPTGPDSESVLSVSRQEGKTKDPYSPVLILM
The note with it: kinase NEK5; NEW KINOMEscan.

In assay [8] the target is kinases (KINOMEscan panel) (Homo sapiens, UniProt Q06187). The note with it: kinase BTK; NEW KINOMEscan.
Sequence of kinases (KINOMEscan panel) (Homo sapiens, UniProt Q06187) (Q06187 whole entry): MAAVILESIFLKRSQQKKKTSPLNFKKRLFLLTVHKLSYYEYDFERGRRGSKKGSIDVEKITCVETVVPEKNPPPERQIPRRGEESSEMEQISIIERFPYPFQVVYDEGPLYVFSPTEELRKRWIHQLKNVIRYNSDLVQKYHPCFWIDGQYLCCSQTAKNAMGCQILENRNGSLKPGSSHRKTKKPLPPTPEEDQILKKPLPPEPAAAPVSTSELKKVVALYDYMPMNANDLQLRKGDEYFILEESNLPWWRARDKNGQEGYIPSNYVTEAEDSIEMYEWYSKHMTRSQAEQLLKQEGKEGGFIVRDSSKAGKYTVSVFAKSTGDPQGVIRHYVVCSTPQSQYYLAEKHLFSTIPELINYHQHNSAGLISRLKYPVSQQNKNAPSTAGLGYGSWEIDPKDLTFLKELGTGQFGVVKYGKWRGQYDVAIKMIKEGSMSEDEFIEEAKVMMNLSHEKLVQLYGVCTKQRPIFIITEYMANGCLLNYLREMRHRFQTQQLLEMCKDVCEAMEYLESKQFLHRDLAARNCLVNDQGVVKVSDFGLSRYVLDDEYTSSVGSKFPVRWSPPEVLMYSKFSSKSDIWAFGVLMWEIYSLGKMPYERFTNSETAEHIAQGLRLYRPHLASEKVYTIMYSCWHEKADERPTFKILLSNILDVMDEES
Assay [9] has as its target kinases (KINOMEscan panel) (Homo sapiens, UniProt Q13523). The note with it: PRPF4B; NEW KINOMEscan.
The target in assay [10] is kinases (KINOMEscan panel) (Homo sapiens, UniProt Q02779). The note with it: kinase MAP3K10; NEW KINOMEscan.
Sequence of kinases (KINOMEscan panel) (Homo sapiens, UniProt Q02779) (Q02779 whole entry): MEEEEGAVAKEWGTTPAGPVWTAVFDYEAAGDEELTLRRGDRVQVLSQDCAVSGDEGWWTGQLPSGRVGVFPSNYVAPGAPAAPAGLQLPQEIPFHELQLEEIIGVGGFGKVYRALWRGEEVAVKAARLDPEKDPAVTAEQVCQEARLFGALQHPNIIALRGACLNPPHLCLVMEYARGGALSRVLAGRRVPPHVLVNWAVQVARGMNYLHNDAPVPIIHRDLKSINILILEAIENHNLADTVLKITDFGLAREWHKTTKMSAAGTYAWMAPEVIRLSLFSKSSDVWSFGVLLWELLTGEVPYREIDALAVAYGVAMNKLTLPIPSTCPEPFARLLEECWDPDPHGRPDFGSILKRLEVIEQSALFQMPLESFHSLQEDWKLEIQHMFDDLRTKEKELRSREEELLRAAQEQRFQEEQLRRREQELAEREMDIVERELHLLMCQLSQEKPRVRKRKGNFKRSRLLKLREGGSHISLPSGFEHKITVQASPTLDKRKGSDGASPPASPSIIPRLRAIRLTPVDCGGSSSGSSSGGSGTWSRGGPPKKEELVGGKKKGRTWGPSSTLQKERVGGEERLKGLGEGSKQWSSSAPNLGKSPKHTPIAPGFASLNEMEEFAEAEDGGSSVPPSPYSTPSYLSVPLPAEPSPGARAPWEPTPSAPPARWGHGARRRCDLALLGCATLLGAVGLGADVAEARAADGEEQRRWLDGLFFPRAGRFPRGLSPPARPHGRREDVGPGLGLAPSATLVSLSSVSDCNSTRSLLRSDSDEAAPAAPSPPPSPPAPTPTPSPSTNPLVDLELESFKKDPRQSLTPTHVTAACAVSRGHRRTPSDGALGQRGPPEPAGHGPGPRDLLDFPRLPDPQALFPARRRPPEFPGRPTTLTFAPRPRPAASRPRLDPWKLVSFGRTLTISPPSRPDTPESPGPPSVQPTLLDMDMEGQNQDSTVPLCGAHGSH
The target of assay [11] is kinases (KINOMEscan panel) (Homo sapiens, UniProt P51957). Particulars: kinase NEK4; NEW KINOMEscan.
In assay [12] the target is T3, kinases (KINOMEscan panel) (Homo sapiens, UniProt O14965).
T3 sequence (O14965 1-403): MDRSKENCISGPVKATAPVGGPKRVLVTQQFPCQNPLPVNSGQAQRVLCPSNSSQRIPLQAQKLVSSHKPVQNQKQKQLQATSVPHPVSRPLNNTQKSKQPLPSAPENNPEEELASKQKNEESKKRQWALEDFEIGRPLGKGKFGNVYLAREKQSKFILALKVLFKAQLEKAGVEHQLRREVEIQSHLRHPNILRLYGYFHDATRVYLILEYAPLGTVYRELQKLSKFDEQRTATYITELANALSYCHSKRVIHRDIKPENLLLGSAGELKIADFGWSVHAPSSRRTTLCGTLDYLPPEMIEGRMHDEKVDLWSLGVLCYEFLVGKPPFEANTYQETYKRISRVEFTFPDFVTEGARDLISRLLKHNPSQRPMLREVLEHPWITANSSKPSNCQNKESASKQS
Particulars: NEW KINOMEscan.

The target of assay [13] is kinases (KINOMEscan panel) (Homo sapiens, UniProt P00533, L861Q). The note with it: kinase EGFR(L861Q); NEW KINOMEscan.
Sequence of kinases (KINOMEscan panel) (Homo sapiens, UniProt P00533, L861Q) (P00533 25-1210 L861Q): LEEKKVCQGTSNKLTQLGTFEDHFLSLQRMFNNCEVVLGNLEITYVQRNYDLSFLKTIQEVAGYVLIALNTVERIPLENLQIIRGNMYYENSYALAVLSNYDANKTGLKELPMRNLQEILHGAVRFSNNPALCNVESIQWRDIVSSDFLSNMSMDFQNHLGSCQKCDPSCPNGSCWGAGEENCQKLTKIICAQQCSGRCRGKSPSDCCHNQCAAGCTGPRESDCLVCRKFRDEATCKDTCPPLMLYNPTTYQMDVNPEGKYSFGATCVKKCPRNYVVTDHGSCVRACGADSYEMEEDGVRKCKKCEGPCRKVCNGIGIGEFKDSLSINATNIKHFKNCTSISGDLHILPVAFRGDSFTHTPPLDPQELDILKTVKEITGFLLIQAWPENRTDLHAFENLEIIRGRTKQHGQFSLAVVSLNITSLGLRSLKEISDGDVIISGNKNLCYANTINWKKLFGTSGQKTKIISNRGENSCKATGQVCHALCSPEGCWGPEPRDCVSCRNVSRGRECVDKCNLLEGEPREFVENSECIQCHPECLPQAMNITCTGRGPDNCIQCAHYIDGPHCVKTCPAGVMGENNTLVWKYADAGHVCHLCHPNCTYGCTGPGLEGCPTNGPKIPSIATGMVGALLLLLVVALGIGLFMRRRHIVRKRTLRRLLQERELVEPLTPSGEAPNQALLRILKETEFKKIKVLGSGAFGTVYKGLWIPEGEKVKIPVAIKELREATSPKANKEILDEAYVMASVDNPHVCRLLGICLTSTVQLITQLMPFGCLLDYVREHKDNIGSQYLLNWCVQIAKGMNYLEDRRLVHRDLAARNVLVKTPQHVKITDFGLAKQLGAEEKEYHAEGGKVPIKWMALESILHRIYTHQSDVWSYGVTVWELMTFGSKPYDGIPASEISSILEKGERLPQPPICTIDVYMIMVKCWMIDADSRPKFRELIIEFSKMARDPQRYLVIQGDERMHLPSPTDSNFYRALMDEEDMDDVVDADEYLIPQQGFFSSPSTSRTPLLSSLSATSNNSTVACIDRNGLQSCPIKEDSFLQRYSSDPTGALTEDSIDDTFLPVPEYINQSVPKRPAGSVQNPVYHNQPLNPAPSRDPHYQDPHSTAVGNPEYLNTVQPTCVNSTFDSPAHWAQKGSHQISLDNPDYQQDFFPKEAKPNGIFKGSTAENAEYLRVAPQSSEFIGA

Sequence of kinases (KINOMEscan panel) (Homo sapiens, UniProt P15056, V600E) (P15056 whole entry V600E): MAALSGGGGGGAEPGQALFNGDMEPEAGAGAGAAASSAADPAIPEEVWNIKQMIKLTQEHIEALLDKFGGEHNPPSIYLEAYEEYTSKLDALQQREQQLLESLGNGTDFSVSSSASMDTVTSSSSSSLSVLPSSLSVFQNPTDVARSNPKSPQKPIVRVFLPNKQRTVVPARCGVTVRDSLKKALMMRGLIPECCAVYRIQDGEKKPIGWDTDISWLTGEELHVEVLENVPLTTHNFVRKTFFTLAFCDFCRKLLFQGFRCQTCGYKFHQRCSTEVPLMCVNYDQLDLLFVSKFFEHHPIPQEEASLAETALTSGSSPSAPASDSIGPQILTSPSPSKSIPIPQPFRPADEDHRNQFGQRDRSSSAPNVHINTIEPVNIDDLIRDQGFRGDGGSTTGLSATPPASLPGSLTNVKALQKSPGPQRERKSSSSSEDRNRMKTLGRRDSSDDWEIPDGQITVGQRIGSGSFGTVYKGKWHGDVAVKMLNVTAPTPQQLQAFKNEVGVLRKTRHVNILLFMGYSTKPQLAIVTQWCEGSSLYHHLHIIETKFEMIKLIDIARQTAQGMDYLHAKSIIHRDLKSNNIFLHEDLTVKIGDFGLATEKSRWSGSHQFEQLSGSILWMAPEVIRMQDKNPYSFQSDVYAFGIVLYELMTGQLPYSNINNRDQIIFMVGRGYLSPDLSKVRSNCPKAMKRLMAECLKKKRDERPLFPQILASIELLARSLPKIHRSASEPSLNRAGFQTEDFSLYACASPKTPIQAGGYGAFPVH

In the case of `Cc1cccc(-c2nc(N(C)c3ccc4ncsc4c3)c3ccccc3n2)n1` [NK-161], the “KINOMEscan KIT(D816V)” value in assay [1] is recorded as 7. For the same compound, the “KINOMEscan CHEK2” value in [2] was 0. For the same compound, the “KINOMEscan RIOK2” value in assay [3] stood at 3. The “KINOMEscan BRAF(V600E)” value in assay [4] is given as 0. Also, in assay [5], the “KINOMEscan RIOK3” value is listed as 0. Besides, the “KINOMEscan FYN” value in assay [6] is on record as 0. For the same compound, in assay [7], the “KINOMEscan NEK5” value was determined as 0. Besides, the “KINOMEscan BTK” value in assay [8] amounted to 10. Besides, the “KINOMEscan PRPF4B” value in [9] was 0. Further, the “KINOMEscan MAP3K10” value in [10] came out at 1. The “KINOMEscan NEK4” value in assay [11] was 5. For the same compound, in [12], the “KINOMEscan AURKA” value is given as 22. Also, in assay [13], the “KINOMEscan EGFR(L861Q)” value was 0.
As to `Cc1cccc(-c2nc(Nc3ccc4nn(C)cc4c3)c3ccccc3n2)n1` [NK167], the “KINOMEscan KIT(D816V)” value in [1] was 0. The “KINOMEscan CHEK2” value in [2] was determined as 0. The “KINOMEscan RIOK2” value in assay [3] worked out at 3. Further, the “KINOMEscan BRAF(V600E)” value in assay [4] was found to be 0. In assay [5], the “KINOMEscan RIOK3” value is reported as 0. Moreover, the “KINOMEscan FYN” value in [6] stood at 0. Besides, the “KINOMEscan NEK5” value in assay [7] was found to be 0. Also, the “KINOMEscan BTK” value in [8] was 0. The “KINOMEscan PRPF4B” value in [9] was 0. For the same compound, in assay [10], the “KINOMEscan MAP3K10” value was found to be 13. Further, the “KINOMEscan NEK4” value in assay [11] is 0. In addition, the “KINOMEscan AURKA” value in assay [12] was determined as 3. The “KINOMEscan EGFR(L861Q)” value in assay [13] was 0.
